Values of other authors in patent publication US10663473B2, “Method of identifying a status of a mucosal intestinal epithelial barrier to improve treatment of inflammatory bowel disease” (Maximus Diagnostic Technologies LLC, priority 2016, dated 2020).

Test system: IBD patients
Details: cited from earlier work

Substance | short-term and long-term clinical response rate (all UC patients) [%] | clinical response rate (particularly for Crohn's disease, compared with anti-TNF agents)
golimumab: monoclonal antibody to TNF-alpha sold under the trademark Simponi | 50 | 
vedolizumab: monoclonal antibody that specifically binds to integrin α4β7, sold under the name ENTYVIO by Takeda Pharmaceuticals |  | low
